Test results published in a melting point compilation (Tetko et al.; mined from patent text by program, amines drawn as free bases though some values may be those of a salt).

Row | SMILES | melting point [°C]
1 | CC(=CC#N)CCN1C(=O)c2ccccc2S1(=O)=O | 117 to 118
2 | Cc1nc2ccccn2c(=O)c1CCN1CCC(Nc2nc3ccccc3n2Cc2cnccn2)CC1 | 204
3 | COc1ccc(N(CCCCCO)S(=O)(=O)c2c(F)c(F)c(F)c(F)c2F)cc1 | 96 to 97
4 | N#CC1CN1C(=O)Oc1ccc([N+](=O)[O-])cc1 (configuration not stated) | 100 to 104
5 | CCOC(=O)CCN(C)CC(C(=O)OC)c1cc(OC)c(CC)c(OC)c1 (configuration not stated) | 74 to 75
6 | OC/C=C/c1ccc(O)cc1 | 116 to 118
7 | CCOC(=O)C(=CNc1cc([N+](=O)[O-])ccc1O)C(=O)c1cc(F)c(F)c(F)c1F | 222
8 | C[C@@H](O[Si](C)(C)C(C)(C)C)[C@@H]1C(=O)N[C@@H]1S(C)(=O)=O | 101 to 102
9 | CC(C)C[C@@H](C=O)NC(=O)[C@H](Cc1c[nH]cn1)NC(=O)C(CCCCc1ccccc1)Cc1cccc2ccccc12 (some centres not stated) | 87 to 92
10 | CCC(=O)N(CC)c1cccc(-c2ccnc3c(C(=O)c4ccccc4)cnn23)c1 | 194 to 195
11 | CCOC1CCC(=O)N1S(=O)(=O)c1ccc(OC)cc1 (configuration not stated) | 112 to 113
12 | O=C(O)C1(c2ccccc2)CCN(Cc2ccccc2)CC1 | 286
13 | CC(C)NCC(O)c1ccc(N)c(C#N)c1 (configuration not stated) | 159 to 161
14 | CC(C)COCCOc1ccc(OCC(O)CNCCNC(=O)N2CCOCC2)cc1 (configuration not stated) | 95 to 96
15 | CC(C)C(C#N)NC(=O)c1snc(Cl)c1Cl (configuration not stated) | 120 to 121
16 | CCCC(=O)OC1(C(=O)COC(=O)CC)CCC2C3CC(C)C4=CC(=O)C=CC4(C)C3C(O)CC21C (configuration not stated) | 126

Row | SMILES | melting point [°C]
17 | CCOC(=O)c1c(C)cc2c(c1C)C(=O)OC2(C)O (configuration not stated) | 118 to 120
18 | CCCC(=O)Oc1cc(C(C)C)ccc1C1(OC(=O)CCC)C(=O)c2ccccc2C1=O | 98 to 102
19 | CCOC(=O)C(C)(C)n1c(=O)[nH]c2cc(F)c(F)cc2c1=O | 166 to 168
20 | CN1CCN(c2cccc3c2C[C@H](NC(=O)c2ccc(C(F)(F)F)cc2C(F)(F)F)CO3)CC1 | 202 to 203
21 | CCC(C=CC(C)C1CCC2C3CC=C4CC(OC(=O)NCCO)CCC4(C)C3CCC12C)C(C)C (configuration not stated) | 172 to 173
22 | C=Cn1cc(C(=O)O)c(=O)c2cc(F)c(Cl)cc21 | 210
23 | CN(C)N=Nc1ccsc1C(=O)O | 108 to 110
24 | COC(=O)C1=C(C)NC(C)=C(C(=O)OCCN2CCN(C(c3ccccc3)c3ccccc3)CC2)C1c1cccc(C(F)(F)F)c1 (configuration not stated) | 70 to 72
25 | CCOC(=O)c1cncc(OC)c1CCCO | 85 to 89
26 | CCC1(CC)CN(C(C)(C)C)C(=O)C(CC)(CC)N1OC(=O)C(C)(C)C | 58 to 60
27 | OCc1cc(F)nc(F)c1 | 66 to 67
28 | Cc1ccc(S(=O)(=O)NC2CCCCC2NC(=O)OC(C)(C)C)cc1 (configuration not stated) | 137 to 139
29 | CCCCCCCCCCn1c(C)cc(C)c(C(=O)O)c1=O | 67.5 to 72
30 | Nc1ccc2c(c1)C(CN1CCCCC1)CO2 (configuration not stated) | 144 to 150
31 | Cc1nn(C)c2c(O)nc(C3CC3)nc12 | 238 to 240

Next, values leading:

Row | melting point [°C] | SMILES
32 | 97 to 99 | Cc1cccc(C=Cc2c(C(C)C)nc(C(C)C)c(CO)c2-c2ccc(F)cc2)c1
33 | 164 to 165 | CSc1nc(N)nc(SC)c1-c1ccc(Cl)cc1Cl
34 | 147 to 148 | COc1ccnc(CCc2nc3cc(-c4ccco4)cnc3[nH]2)c1
35 | 145 to 149 | COc1cccc(C2C(C(=O)O)CC(=O)N2c2ccccc2)c1 (configuration not stated)
36 | 110 to 111 | COC(=O)COc1ccc(Cc2ncc(C(F)(F)F)cc2Cl)c(Cl)c1Cl
37 | 210 to 214 | Cc1cc(NC(=O)NC(=O)c2c(Cl)cccc2Cl)ncc1-c1ccccc1
38 | 140 | CCCCOc1ccc(C(=O)Nc2ccc3ccc(Cl)nc3n2)cc1
39 | 138 to 139 | CCOC(=O)N1CCNC1=Nc1ccc(Cl)cc1Cl
40 | 81 to 83 | CN=Cc1cnc(-c2ccccc2Cl)s1
41 | 230 to 241 | CN(C)c1nccc(-c2cccnc2)n1
42 | 79 to 81 | CC(C)(C)C(O)C(CCCCOc1ccccc1)n1cncn1 (configuration not stated)
43 | 158 to 160 | C[C@@H](n1ncnn1)[C@](O)(Cn1ccnc1)c1ccc(F)cc1F
44 | 258 to 259 | N#Cc1cc(C(=O)NNC(=O)c2occc2-c2cccs2)ccc1O
45 | 82.5 to 83 | COc1ccc(C(O)c2ccccc2)cc1OC1CCCC1 (configuration not stated)
46 | 96 | Cc1ccc(S(=O)(=O)N2CCCC2c2ccc(F)c(Cl)c2)cc1 (racemic)
47 | > 260 | Cc1nc2c(s1)C(=O)c1ccccc1C2=O
48 | 47 to 49 | ClCCCCSCc1ccc2ccccc2c1
49 | 166 to 170 | CSC(=S)NN=Cc1c[nH]c(-c2ccccc2)n1
50 | 194 to 195 | O=C(O)c1cccc2cc(Oc3cc(Cl)ncn3)ccc12
51 | 251 to 252 | c1cc(-c2nc(-c3cnccn3)n[nH]2)ccn1
52 | 148 to 149 | C=CCOc1ccccc1OCCNCC(O)COc1cccc2c1CC(=O)N2 (configuration not stated)
